From ChEMBL document CHEMBL1133436 (Bioorg Med Chem Lett, 2000)

Key:
Homo sapiens = organism: Homo sapiens; assay: Selectivity for alpha-2a to that of alpha2b determined by their binding affinity ratios
[1] = biological target: T1, Alpha-2B adrenergic receptor (Homo sapiens, UniProt P18089); assay: biochemical; type: cell-based, CHO
T1 sequence (P18089 whole entry): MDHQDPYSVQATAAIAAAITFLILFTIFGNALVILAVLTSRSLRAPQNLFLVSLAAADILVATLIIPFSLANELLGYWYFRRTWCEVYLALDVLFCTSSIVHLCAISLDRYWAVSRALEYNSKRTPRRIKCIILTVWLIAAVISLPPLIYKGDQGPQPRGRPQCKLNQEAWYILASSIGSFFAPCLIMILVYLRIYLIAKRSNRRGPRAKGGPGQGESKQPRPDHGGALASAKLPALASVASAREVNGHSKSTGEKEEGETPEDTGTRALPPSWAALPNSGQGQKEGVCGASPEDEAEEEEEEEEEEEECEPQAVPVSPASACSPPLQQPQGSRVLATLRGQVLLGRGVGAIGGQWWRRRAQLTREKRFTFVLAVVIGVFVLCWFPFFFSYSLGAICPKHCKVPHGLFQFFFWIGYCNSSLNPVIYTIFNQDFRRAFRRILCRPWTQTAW

[2] = biological target: T2, Alpha-2A adrenergic receptor (Homo sapiens, UniProt P08913); assay: Binding affinity against human Alpha-2A adrenergic receptor expressed stably in CHO cells using [3H]rauwolscine as radioligand; type: cell-based
T2 sequence (P08913 whole entry): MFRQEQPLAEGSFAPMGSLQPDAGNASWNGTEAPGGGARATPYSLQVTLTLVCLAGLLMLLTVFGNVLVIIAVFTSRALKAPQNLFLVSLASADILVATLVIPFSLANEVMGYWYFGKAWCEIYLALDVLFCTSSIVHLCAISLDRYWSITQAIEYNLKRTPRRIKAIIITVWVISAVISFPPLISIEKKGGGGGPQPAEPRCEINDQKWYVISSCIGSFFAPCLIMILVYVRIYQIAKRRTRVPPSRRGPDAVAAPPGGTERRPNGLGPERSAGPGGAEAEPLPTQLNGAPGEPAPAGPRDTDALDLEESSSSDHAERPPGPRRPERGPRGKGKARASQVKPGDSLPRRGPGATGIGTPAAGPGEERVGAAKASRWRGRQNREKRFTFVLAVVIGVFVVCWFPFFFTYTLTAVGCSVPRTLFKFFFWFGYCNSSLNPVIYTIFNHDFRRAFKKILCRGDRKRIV

| Selectivity (Homo sapiens) | Ki [1] [nM] | Ki [2] [nM] | SMILES |
| --- | --- | --- | --- |
| 47.7 |  |  | O=C(NCCCCCCCCCCNC(=O)[C@@H]1[C@H]2C[C@H]3c4[nH]c5ccccc5c4CCN3C[C@@H]2CC[C@@H]1O)[C@@H]1[C@H]2C[C@H]3c4[nH]c5ccccc5c4CCN3C[C@@H]2CC[C@@H]1O |
| 60.5 |  |  | O=C(NCCCCCCCCNC(=O)[C@@H]1[C@H]2C[C@H]3c4[nH]c5ccccc5c4CCN3C[C@@H]2CC[C@@H]1O)[C@@H]1[C@H]2C[C@H]3c4[nH]c5ccccc5c4CCN3C[C@@H]2CC[C@@H]1O |
| 35.8 | 44.7 | 1.25 | O=C(NCCCCCCCCCNC(=O)[C@@H]1[C@H]2C[C@H]3c4[nH]c5ccccc5c4CCN3C[C@@H]2CC[C@@H]1O)[C@@H]1[C@H]2C[C@H]3c4[nH]c5ccccc5c4CCN3C[C@@H]2CC[C@@H]1O |
| 15.7 | 18.5 | 1.18 | O=C(NCCCCCCCCCCCCNC(=O)[C@@H]1[C@H]2C[C@H]3c4[nH]c5ccccc5c4CCN3C[C@@H]2CC[C@@H]1O)[C@@H]1[C@H]2C[C@H]3c4[nH]c5ccccc5c4CCN3C[C@@H]2CC[C@@H]1O |
